Measurements: BindingDB's records for PubMed 40136287 (CSIR-Institute of Microbial Technology)

Molecular target: Metallo-beta-lactamase type 2 (Klebsiella pneumoniae, UniProt C7C422)
Assay: Inhibition of NDM1 (unknown origin)

Metallo-beta-lactamase type 2, sequence (C7C422 whole entry): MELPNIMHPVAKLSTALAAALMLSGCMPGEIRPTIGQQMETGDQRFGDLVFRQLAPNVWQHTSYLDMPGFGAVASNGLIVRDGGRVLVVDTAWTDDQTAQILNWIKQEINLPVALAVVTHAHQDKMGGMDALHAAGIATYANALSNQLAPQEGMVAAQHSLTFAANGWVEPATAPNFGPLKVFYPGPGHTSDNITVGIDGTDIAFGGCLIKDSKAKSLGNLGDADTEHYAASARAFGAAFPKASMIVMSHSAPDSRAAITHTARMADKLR

O=C(O)c1ccccn1
IC50: 17.1 µM
